Assay results published in PMC7217150, “Synthesis, Modification, and Biological Evaluation of a Library of Novel Water‐Soluble Thiopyridone‐Based Organometallic Complexes and Their Unexpected (Biological) Behavior” (Chemistry (Weinheim an Der Bergstrasse, Germany), 2020).

Key:
Format in all cases: cell-based, human
SW480 [1] = assay: MTT cytotoxicity assay, monolayer culture; conditions: SW480, MTT assay, exposure time 96 h, means ± SDs
From the text: (§1) A549 (non‐small cell lung carcinoma), SW480 and HCT‐116 (both colon carcinoma) were kindly provided by Brigitte Marian, Institute of Cancer Research, Department of Medicine I, Medical University of Vienna, Austria. The cell line CH1/PA‐1 (ovarian teratocarcinoma) was kindly provided by Lloyd R. Kelland (CRC Centre for Cancer Therapeutics, Institute of Cancer Research, Sutton, UK). All cell culture media (including supplements) and reagents were obtained from Sigma–Aldrich, and all plasticware from StarLab, unless indicated otherwise.

CH1/PA‐1 [2] = assay: MTT cytotoxicity assay, monolayer culture; conditions: CH1/PA‐1, MTT assay, exposure time 96 h, means ± SDs
From the text: as §1

A549 = assay: MTT cytotoxicity assay, monolayer culture; conditions: exposure time 96 h, means ± SDs
From the text: as §1

SW480 [3] = assay: Cell cycle distribution, flow cytometry with propidium iodide; conditions: for Cell cycle distribution G1, % / Cell cycle distribution G2/M, % / Cell cycle distribution S, %: 24 h, mean ± SD; for Relative change in cell cycle distribution G1, % / Relative change in cell cycle distribution G2/M, % / Relative change in cell cycle distribution S, %: difference to untreated control
Experimental: (§2) The influence of two ligands, as well as seven complexes on cell cycle distribution was tested in two of the cancer cell lines (SW480, CH1/PA‐1) by means of flow cytometry. The cell cycle distribution (G1, S, G2/M phase in %; Table S37) was investigated upon DNA staining with propidium iodide.
(§3) CH1/PA‐1 and SW480 cells were harvested by trypsinization, 8×10^4 and 1.2×10^5 cells per well were seeded into 12‐well plates, respectively. The cells were allowed to attach and resume proliferation for 24 h after the seeding. […] After continuous exposure for 24 h at 37 °C and under 5 % CO2, the cells were harvested by trypsinization and centrifuged at 300 g for 3 min. The cells were washed with PBS (1 mL) and resuspended in propidium iodine (PI) containing HSF buffer (600 μL; 0.1 % Triton X‐100, 0.1 % sodium citrate, 50 μg mL^−1 PI in PBS). After incubation overnight at 4 °C in the dark, 5×10^3 cells were measured by flow cytometry with a Millipore Guava easyCyte 8HT instrument (Luminex, USA). Data were evaluated by means of FlowJo software (Tree Star) using Watson Pragmatic algorithms.60 The fitting of the curve was chosen to keep the root mean square error between 1.0 and 2.0, alongside with good fitting visual model.

CH1/PA‐1 [4] = assay: as above; conditions: for Cell cycle distribution G1, % / Cell cycle distribution G2/M, % / Cell cycle distribution S, %: 24 h, mean ± SD; for Relative change in cell cycle distribution G1, % / Relative change in cell cycle distribution G2/M, % / Relative change in cell cycle distribution S, %: difference to untreated control
Experimental: as §2, §3

| Molecule | IC50 (SW480 [1]) [nM] | IC50 (CH1/PA‐1 [2]) [nM] | IC50 (A549) [nM] | Cell cycle distribution G1, % (SW480 [3]; SW480, 2.5 µM) [%] | Cell cycle distribution G2/M, % (SW480 [3]; SW480, 2.5 µM) [%] | Cell cycle distribution S, % (SW480 [3]; SW480, 2.5 µM) [%] | Relative change in cell cycle distribution G1, % (SW480 [3]; SW480, 2.5 µM) [%] | Relative change in cell cycle distribution G2/M, % (SW480 [3]; SW480, 2.5 µM) [%] | Relative change in cell cycle distribution S, % (SW480 [3]; SW480, 2.5 µM) [%] | Cell cycle distribution G1, % (SW480 [3]; SW480, 5 µM) [%] | Cell cycle distribution G2/M, % (SW480 [3]; SW480, 5 µM) [%] | Cell cycle distribution S, % (SW480 [3]; SW480, 5 µM) [%] | Relative change in cell cycle distribution G1, % (SW480 [3]; SW480, 5 µM) [%] | Relative change in cell cycle distribution G2/M, % (SW480 [3]; SW480, 5 µM) [%] | Relative change in cell cycle distribution S, % (SW480 [3]; SW480, 5 µM) [%] | Cell cycle distribution G1, % (SW480 [3]; SW480, 10 µM) [%] | Cell cycle distribution G2/M, % (SW480 [3]; SW480, 10 µM) [%] | Cell cycle distribution S, % (SW480 [3]; SW480, 10 µM) [%] | Relative change in cell cycle distribution G1, % (SW480 [3]; SW480, 10 µM) [%] | Relative change in cell cycle distribution G2/M, % (SW480 [3]; SW480, 10 µM) [%] | other results |
| --- | --- | --- | --- | --- | --- | --- | --- | --- | --- | --- | --- | --- | --- | --- | --- | --- | --- | --- | --- | --- | --- |
| CC1=C2[O][Rh+]([Cl])[S]=C2C=CN1c1cccc2ccccc12.Cc1c(C)c(C)[c-](C)c1C [Compound 5 d, Chlorido[1‐(naphthalene‐1‐yl)‐2‐methyl‐3‐oxo‐κO‐pyridine‐4(1H)‐thionato‐κS](η^5‐1,2,3,4,5‐pentamethylcyclopentadienyl)rhodium(III)] | 1000 ± 100 | 480 ± 60 | 1300 ± 200 | 38 ± 12 | 22 ± 8 | 40 ± 3 | -10 | 3 | 7 | 43 ± 10 | 20 ± 3 | 37 ± 8 | -5 | 1 | 4 | 48 ± 10 | 18 ± 1 | 34 ± 9 | 0 | -1 | Relative change in cell cycle distribution S, % (SW480 [3]; SW480, 10 µM): 1%; Cell cycle distribution G1, % (CH1/PA‐1 [4]; CH1/PA-1, 1.25 µM): 40 ± 10%; Cell cycle distribution G2/M, % (CH1/PA‐1 [4]; CH1/PA-1, 1.25 µM): 16 ± 9%; Cell cycle distribution S, % (CH1/PA‐1 [4]; CH1/PA-1, 1.25 µM): 44 ± 3%; Relative change in cell cycle distribution G1, % (CH1/PA‐1 [4]; CH1/PA-1, 1.25 µM): 0%; Relative change in cell cycle distribution G2/M, % (CH1/PA‐1 [4]; CH1/PA-1, 1.25 µM): -8%; Relative change in cell cycle distribution S, % (CH1/PA‐1 [4]; CH1/PA-1, 1.25 µM): 8%; Cell cycle distribution G1, % (CH1/PA‐1 [4]; CH1/PA-1, 2.5 µM): 38 ± 5%; Cell cycle distribution G2/M, % (CH1/PA‐1 [4]; CH1/PA-1, 2.5 µM): 27 ± 8%; Cell cycle distribution S, % (CH1/PA‐1 [4]; CH1/PA-1, 2.5 µM): 36 ± 7%; Relative change in cell cycle distribution G1, % (CH1/PA‐1 [4]; CH1/PA-1, 2.5 µM): -2%; Relative change in cell cycle distribution G2/M, % (CH1/PA‐1 [4]; CH1/PA-1, 2.5 µM): 3%; Relative change in cell cycle distribution S, % (CH1/PA‐1 [4]; CH1/PA-1, 2.5 µM): 0%; Cell cycle distribution G1, % (CH1/PA‐1 [4]; CH1/PA-1, 5 µM): 39 ± 6%; Cell cycle distribution G2/M, % (CH1/PA‐1 [4]; CH1/PA-1, 5 µM): 22 ± 5%; Cell cycle distribution S, % (CH1/PA‐1 [4]; CH1/PA-1, 5 µM): 40 ± 2%; Relative change in cell cycle distribution G1, % (CH1/PA‐1 [4]; CH1/PA-1, 5 µM): -1%; Relative change in cell cycle distribution G2/M, % (CH1/PA‐1 [4]; CH1/PA-1, 5 µM): -2%; Relative change in cell cycle distribution S, % (CH1/PA‐1 [4]; CH1/PA-1, 5 µM): 4% |
| Chlorido[1‐phenyl‐2‐methyl‐3‐oxo‐κO‐pyridine‐4(1H)‐thionato‐κS](η^5‐1,2,3,4,5‐pentamethylcyclopentadienyl)rhodium(III) [Compound 5 b] | 670 ± 40 | 660 ± 80 | 2000 ± 800 | 37 ± 17 | 23 ± 7 | 40 ± 11 | -11 | 4 | 7 | 26 ± 13 | 27 ± 9 | 48 ± 7 | -22 | 8 | 15 | 34 ± 10 | 17 ± 6 | 49 ± 8 | -14 | -2 | Relative change in cell cycle distribution S, % (SW480 [3]; SW480, 10 µM): 16%; G1 phase decrease (SW480 [3]; SW480 cells, 5 μM): more than 20%; Cell cycle distribution G1, % (CH1/PA‐1 [4]; CH1/PA-1, 2.5 µM): 22 ± 2%; Cell cycle distribution S, % (CH1/PA‐1 [4]; CH1/PA-1, 2.5 µM): 43 ± 9%; Relative change in cell cycle distribution G1, % (CH1/PA‐1 [4]; CH1/PA-1, 2.5 µM): -18%; Relative change in cell cycle distribution G2/M, % (CH1/PA‐1 [4]; CH1/PA-1, 2.5 µM): 11%; Relative change in cell cycle distribution S, % (CH1/PA‐1 [4]; CH1/PA-1, 2.5 µM): 7%; Cell cycle distribution G1, % (CH1/PA‐1 [4]; CH1/PA-1, 5 µM): 22 ± 6%; Cell cycle distribution G2/M, % (CH1/PA‐1 [4]; CH1/PA-1, 5 µM): 41 ± 4%; Cell cycle distribution S, % (CH1/PA‐1 [4]; CH1/PA-1, 5 µM): 37 ± 5%; Relative change in cell cycle distribution G1, % (CH1/PA‐1 [4]; CH1/PA-1, 5 µM): -18%; Relative change in cell cycle distribution G2/M, % (CH1/PA‐1 [4]; CH1/PA-1, 5 µM): 17%; Relative change in cell cycle distribution S, % (CH1/PA‐1 [4]; CH1/PA-1, 5 µM): 1%; Cell cycle distribution G1, % (CH1/PA‐1 [4]; CH1/PA-1, 10 µM): 19 ± 7%; Cell cycle distribution G2/M, % (CH1/PA‐1 [4]; CH1/PA-1, 10 µM): 39 ± 5%; Cell cycle distribution S, % (CH1/PA‐1 [4]; CH1/PA-1, 10 µM): 42 ± 1%; Relative change in cell cycle distribution G1, % (CH1/PA‐1 [4]; CH1/PA-1, 10 µM): -21%; Relative change in cell cycle distribution G2/M, % (CH1/PA‐1 [4]; CH1/PA-1, 10 µM): 15%; Relative change in cell cycle distribution S, % (CH1/PA‐1 [4]; CH1/PA-1, 10 µM): 6%; decrease in G1 phase (CH1/PA‐1 [4]; CH1/PA‐1 cells, 10 μM): more than 20% |
